# Several values for one entry are separate records, joined by “and”; a condition that tells them apart may be missing. Equal values may be shown once.
# Assays:
# Assay type in all cases: cell-based, human
# [1] = test system: TIG‐111 dermal fibroblasts; test: cell survival (trypan blue exclusion, 5 days), TIG-111; conditions: for IC50: TIG111, cellular survival, 5 days; for Ratio of survived cells (Drugs treated/Untreated), Average / Ratio of survived cells (Drugs treated/Untreated), single passage points #: TIG-111
# Procedure: (§1) Modified procedures of CTOS culture 16 were described elsewhere 10. […] The culture medium was serum‐free advanced DMEM/F‐12 (GIBCO, Waltham, MA) supplemented with FGF‐2 (10 ng/mL, ReproCell, Yokohama, Japan), penicillin ([…], Wako, Osaka, Japan), streptomycin (0.1 mg/mL,Wako), gentamicin (50 μg/mL, Wako), and fungizone (0.25 μg/mL, GIBCO). DLD‐1 and HCT116 CRC cell lines were purchased from JCRB Cell Bank (Osaka, Japan) and RIKEN BioResource Center (Ibaraki, Japan), respectively. In order to estimate pharmacological side effects against normal tissues, human diploid fibroblasts were purchased (JCRB Cell Bank) as model cells. The origins of the fibroblasts were as follows: OUMS‐36 (embryo), TIG‐3 (fetal lung), TIG‐111 (dermal fibroblasts [DFs] from individual), TIG‐119 (DFs from individual), and TIG‐102 (DFs from individual). Adult DFs were purchased from Kurabo (Osaka, Japan). CRC cell lines and fibroblasts were maintained under supplier‐recommended culture conditions. Since the culture conditions are different between fibroblasts and CTOSs, we need to be cautious about the interpretation of data (i.e., lateral comparison between them). […] Colorectal CTOSs display augmented survival through maintaining epithelial structure with E‐cadherin 16. On the other hand, the establishment of conventional cell lines (adherent culture) are much less efficient because constant cell division and autonomous survival are required for the procedure. When we choose CTOSs instead of cancer cell lines, we lose the equivalent condition (adherent culture) as a trade‐off.
# (§2) Each drug's half‐maximal inhibitory concentration (IC50) was calculated based on live cell number ratios (drug treated/untreated × 100%) obtained from serial dilution of drug concentration. The length of drug exposure was 5 days. Each number of live cells was counted automatically by trypan blue exclusion (LUNA automated cell counter, Logos Biosystems, Anyang, South Korea). Cancer spheroids were dispersed with serial treatments (20 min each) of TrypLE™ and Accumax™. Thus, IC50 was determined based on cellular survival, but not on proliferation. We chose the survival index instead of the speed of growth because CTOSs in vitro show very slow proliferation (quiescence), which is one of the hallmarks of CSCs 2. The IC50 values of fibroblasts were accordingly determined based on cellular survival index during quiescence (by contact inhibition). […] To quantify the synergism of two distinct drugs, Combination Index (CI) was calculated 21. A CI value of about 1 (0.90–1.10) was defined as nearly additive and CI values more than (>1.10) and less than (<0.90) were defined as antagonism and synergism, respectively. IC50 and CI were determined using CompuSyn software (ComboSyn, Paramus, NK).
# [2] = test system: CTOS86 colorectal cancer tissue‐originated spheroids; test: cell survival (trypan blue exclusion, 5 days), CTOS86; conditions: for IC50: CTOS86, cellular survival, 5 days; for Ratio of survived cells (Drugs treated/Untreated), Average / Ratio of survived cells (Drugs treated/Untreated), single passage points #: CTOS#86
# Excerpt: (§3) All experimental procedures were approved by the animal facility at Dokkyo Medical University (ID: 951) and were described elsewhere 10. The existence of CSCs has been experimentally proven through serial xenotransplantation and tumorigenesis 2, 14. […] These subcutaneous tumors were again subjected to enzymatic dissociation and some of the tumor cells were subcutaneously transplanted into other mice. […] Seven cases (CTOS:40, 42, 68, 71, 76, 86, 88) were used for in vitro experiments.
# as §1
# (§4) Each drug's half‐maximal inhibitory concentration (IC50) was calculated based on live cell number ratios (drug treated/untreated × 100%) obtained from serial dilution of drug concentration. The length of drug exposure was 5 days. Each number of live cells was counted automatically by trypan blue exclusion (LUNA automated cell counter, Logos Biosystems, Anyang, South Korea). Cancer spheroids were dispersed with serial treatments (20 min each) of TrypLE™ and Accumax™. Thus, IC50 was determined based on cellular survival, but not on proliferation.
# [3] = test system: TIG‐119 dermal fibroblasts; test: cell survival (trypan blue exclusion, 5 days), TIG-119; conditions: for IC50: TIG119, cellular survival, 5 days
# Procedure: as §1, §2
# [4] = test system: CTOS88 colorectal cancer tissue‐originated spheroids; test: cell survival (trypan blue exclusion, 5 days), CTOS88; conditions: for Ratio of survived cells (Drugs treated/Untreated), #3: passage point #3; for Ratio of survived cells (Drugs treated/Untreated), #4: passage point #4; for Ratio of survived cells (Drugs treated/Untreated), #5: passage point #5; for Ratio of survived cells (Drugs treated/Untreated), #1: passage point #1; for Ratio of survived cells (Drugs treated/Untreated), #6: passage point #6
# Excerpt: as §3, §1, §4
# [5] = test system: CTOS71 colorectal cancer tissue‐originated spheroids; test: cell survival (trypan blue exclusion, 5 days), CTOS71; conditions: for IC50: CTOS71, cellular survival, 5 days; for Ratio of survived cells (Drugs treated/Untreated), Average / Ratio of survived cells (Drugs treated/Untreated), single passage points #: CTOS#71
# Excerpt: as §3, §1, §4
# [6] = test system: DF adult dermal fibroblasts; test: cell survival (trypan blue exclusion, 5 days), DF; conditions: for IC50: cellular survival, 5 days
# Procedure: as §1, §2
# [7] = calculated from average % survival
smiles,measurement,setting,value
"CC[PH](CC)(CC)[Au][S][C@@H]1O[C@H](COC(C)=O)[C@@H](OC(C)=O)[C@H](OC(C)=O)[C@H]1OC(C)=O [Aura, Auranofin]",IC50,[1],1.75 µM
same,"Ratio of survived cells (Drugs treated/Untreated), Average",[1]; Aura 1 microM,94.25%
same,"Ratio of survived cells (Drugs treated/Untreated), Average",[1]; Aura 2 microM,41.75%
same,"Ratio of survived cells (Drugs treated/Untreated), Average",[1]; Aura 4 microM,0%
same,"Ratio of survived cells (Drugs treated/Untreated), single passage points #",[1]; Aura 4 microM,0%
same,IC50,[2],3.02 µM
same,"Ratio of survived cells (Drugs treated/Untreated), Average",[2]; Aura 1 microM,83.5%
same,"Ratio of survived cells (Drugs treated/Untreated), single passage points #",[2]; Aura 1 microM,75% and 92%
same,"Ratio of survived cells (Drugs treated/Untreated), Average",[2]; Aura 2 microM,64.5%
same,"Ratio of survived cells (Drugs treated/Untreated), single passage points #",[2]; Aura 2 microM,67% and 62%
same,IC50,[3],1.17 µM
same,"Ratio of survived cells (Drugs treated/Untreated), Average","[3]; TIG-119, Aura 1 microM",53.3333%
same,"Ratio of survived cells (Drugs treated/Untreated), Average","[3]; TIG-119, Aura 2 microM",31.6667%
same,"Ratio of survived cells (Drugs treated/Untreated), Average","[3]; TIG-119, Aura 4 microM",5%
same,"Ratio of survived cells (Drugs treated/Untreated), Average",[4]; Aura 1 microM,78.3333%
same,"Ratio of survived cells (Drugs treated/Untreated), #3",[4]; Aura 1 microM,91%
same,"Ratio of survived cells (Drugs treated/Untreated), #4",[4]; Aura 1 microM,76%
same,"Ratio of survived cells (Drugs treated/Untreated), #5",[4]; Aura 1 microM,68%
same,"Ratio of survived cells (Drugs treated/Untreated), Average",[4]; Aura 2 microM,67%
same,"Ratio of survived cells (Drugs treated/Untreated), #3",[4]; Aura 2 microM,72%
same,"Ratio of survived cells (Drugs treated/Untreated), #4",[4]; Aura 2 microM,61%
same,"Ratio of survived cells (Drugs treated/Untreated), #5",[4]; Aura 2 microM,68%
same,"Ratio of survived cells (Drugs treated/Untreated), Average",[4]; Aura 4 microM,24.3333%
same,"Ratio of survived cells (Drugs treated/Untreated), #1",[4]; Aura 4 microM,33%
same,"Ratio of survived cells (Drugs treated/Untreated), #3",[4]; Aura 4 microM,23%
same,"Ratio of survived cells (Drugs treated/Untreated), #5",[4]; Aura 4 microM,17%
same,IC50,[4]; [7],2.34 µM
same,IC50,"[4]; cellular survival, 5 days",2.34 µM
same,IC50,[5],2.21 µM
same,"Ratio of survived cells (Drugs treated/Untreated), Average",[5]; Aura 1 microM,70.2%
same,"Ratio of survived cells (Drugs treated/Untreated), single passage points #",[5]; Aura 1 microM,81% and 77% and 62% and 56% and 75%
same,"Ratio of survived cells (Drugs treated/Untreated), Average",[5]; Aura 2 microM,55.3333%
same,"Ratio of survived cells (Drugs treated/Untreated), Average",[5]; Aura 4 microM,33.1429%
same,"Ratio of survived cells (Drugs treated/Untreated), Average",[6]; Aura 1 microM,88.25%
same,"Ratio of survived cells (Drugs treated/Untreated), Average",[6]; Aura 2 microM,33%
same,"Ratio of survived cells (Drugs treated/Untreated), single passage points #",[6]; Aura 2 microM,38% and 32% and 36% and 26%
same,"Ratio of survived cells (Drugs treated/Untreated), Average",[6]; Aura 4 microM,0%
same,"Ratio of survived cells (Drugs treated/Untreated), single passage points #",[6]; Aura 4 microM,0%
same,IC50,[6],1.59 µM
"COc1cc(/C=C/C(=O)N2CCC=CC2=O)cc(OC)c1OC [Pipe, Piperlongumine]",IC50,[1],8.04 µM
same,"Ratio of survived cells (Drugs treated/Untreated), Average",[1]; Pipe 2.5 microM,110%
same,"Ratio of survived cells (Drugs treated/Untreated), single passage points #",[1]; Pipe 2.5 microM,85% and 103% and 123% and 129%
same,"Ratio of survived cells (Drugs treated/Untreated), Average",[1]; Pipe 5 microM,95%
same,"Ratio of survived cells (Drugs treated/Untreated), single passage points #",[1]; Pipe 5 microM,69% and 82% and 125% and 104%
same,"Ratio of survived cells (Drugs treated/Untreated), Average",[1]; Pipe 10 microM,19.75%
same,IC50,[2],7.12 µM
same,"Ratio of survived cells (Drugs treated/Untreated), Average",[2]; Pipe 2.5 microM,79%
same,"Ratio of survived cells (Drugs treated/Untreated), single passage points #",[2]; Pipe 2.5 microM,79%
same,"Ratio of survived cells (Drugs treated/Untreated), Average",[2]; Pipe 5 microM,60%
same,"Ratio of survived cells (Drugs treated/Untreated), single passage points #",[2]; Pipe 5 microM,69% and 51%
same,"Ratio of survived cells (Drugs treated/Untreated), Average",[2]; Pipe 10 microM,39.5%
same,"Ratio of survived cells (Drugs treated/Untreated), single passage points #",[2]; Pipe 10 microM,39% and 40%
same,IC50,[3],7.48 µM
same,"Ratio of survived cells (Drugs treated/Untreated), Average","[3]; TIG-119, Pipe 2.5 microM",95.75%
same,"Ratio of survived cells (Drugs treated/Untreated), single passage points #","[3]; TIG-119, Pipe 2.5 microM",83% and 121% and 96%
same,"Ratio of survived cells (Drugs treated/Untreated), Average","[3]; TIG-119, Pipe 5 microM",80.75%
same,"Ratio of survived cells (Drugs treated/Untreated), Average","[3]; TIG-119, Pipe 10 microM",27%
same,"Ratio of survived cells (Drugs treated/Untreated), Average",[4]; Pipe 2.5 microM,75.3333%
same,"Ratio of survived cells (Drugs treated/Untreated), #3",[4]; Pipe 2.5 microM,56%
same,"Ratio of survived cells (Drugs treated/Untreated), #4",[4]; Pipe 2.5 microM,86%
same,"Ratio of survived cells (Drugs treated/Untreated), #5",[4]; Pipe 2.5 microM,84%
same,"Ratio of survived cells (Drugs treated/Untreated), Average",[4]; Pipe 5 microM,44.8%
same,"Ratio of survived cells (Drugs treated/Untreated), #1",[4]; Pipe 5 microM,44%
same,"Ratio of survived cells (Drugs treated/Untreated), #3",[4]; Pipe 5 microM,33%
same,"Ratio of survived cells (Drugs treated/Untreated), #4",[4]; Pipe 5 microM,57%
same,"Ratio of survived cells (Drugs treated/Untreated), #5",[4]; Pipe 5 microM,29%
same,"Ratio of survived cells (Drugs treated/Untreated), #6",[4]; Pipe 5 microM,61%
same,"Ratio of survived cells (Drugs treated/Untreated), Average",[4]; Pipe 10 microM,12.2%
same,"Ratio of survived cells (Drugs treated/Untreated), #1",[4]; Pipe 10 microM,19%
same,"Ratio of survived cells (Drugs treated/Untreated), #3",[4]; Pipe 10 microM,4%
same,"Ratio of survived cells (Drugs treated/Untreated), #4",[4]; Pipe 10 microM,16%
same,"Ratio of survived cells (Drugs treated/Untreated), #5",[4]; Pipe 10 microM,5%
same,"Ratio of survived cells (Drugs treated/Untreated), #6",[4]; Pipe 10 microM,17%
same,IC50,[4]; [7],4.25 µM
same,IC50,"[4]; cellular survival, 5 days",4.25 µM
same,IC50,[5],6.01 µM
same,"Ratio of survived cells (Drugs treated/Untreated), Average",[5]; Pipe 2.5 microM,80.8%
same,"Ratio of survived cells (Drugs treated/Untreated), single passage points #",[5]; Pipe 2.5 microM,96% and 59% and 102% and 88%
same,"Ratio of survived cells (Drugs treated/Untreated), Average",[5]; Pipe 5 microM,60.8%
same,"Ratio of survived cells (Drugs treated/Untreated), Average",[5]; Pipe 10 microM,27.8%
same,"Ratio of survived cells (Drugs treated/Untreated), single passage points #",[5]; Pipe 10 microM,21% and 20% and 35% and 27% and 36%
same,"Ratio of survived cells (Drugs treated/Untreated), Average",[6]; Pipe 2.5 microM,94.8333%
same,"Ratio of survived cells (Drugs treated/Untreated), Average",[6]; Pipe 5 microM,80.3333%
same,"Ratio of survived cells (Drugs treated/Untreated), single passage points #",[6]; Pipe 5 microM,81% and 80% and 83% and 109% and 67% and 62%
same,"Ratio of survived cells (Drugs treated/Untreated), Average",[6]; Pipe 10 microM,12.5%
same,IC50,[6],6.3 µM
